Reference: publication PMC6327983, “Discovery of cyanopyridine scaffold as novel indoleamine-2,3-dioxygenase 1 (IDO1) inhibitors through virtual screening and preliminary hit optimisation” (Journal of Enzyme Inhibition and Medicinal Chemistry, 2019)
Values after ≈ are worked out from the molar mass of the structure shown.

Experiments:
HeLa = settings: Figure 1, literature value; cited from earlier work
IDO1 [1] = molecular target: T1, IDO1 (Homo sapiens, UniProt P14902); experiment: Enzyme-based IDO1 activity assay; format: biochemical; settings: purified human IDO1 enzyme; read-out: Enzymatic assay IC50 (hIDO1)
T1 construct: made in house
T1 sequence (P14902 whole entry): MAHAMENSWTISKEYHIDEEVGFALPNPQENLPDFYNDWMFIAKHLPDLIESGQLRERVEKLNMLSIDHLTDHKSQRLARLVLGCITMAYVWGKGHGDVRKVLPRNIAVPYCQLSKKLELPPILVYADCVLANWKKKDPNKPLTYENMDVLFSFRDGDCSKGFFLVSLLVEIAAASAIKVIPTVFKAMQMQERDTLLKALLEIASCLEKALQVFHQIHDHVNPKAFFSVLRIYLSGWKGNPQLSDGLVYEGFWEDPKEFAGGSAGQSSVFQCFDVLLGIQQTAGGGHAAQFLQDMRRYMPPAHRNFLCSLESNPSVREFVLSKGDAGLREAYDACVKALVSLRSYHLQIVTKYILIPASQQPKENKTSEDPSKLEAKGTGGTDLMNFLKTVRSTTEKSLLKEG

HeLa (IDO1) = HeLa (IDO1) (Homo sapiens, UniProt P14902); experiment: Cell-based IDO1 activity assay (HeLa kynurenine assay); settings: IFN-γ stimulated HeLa cells; for EC50: 24 h, read-out: Cellular assay EC50 HeLa (IDO1); for Hill slope of the curves (cellular dose response): Figure 9
HeLa (IDO1), sequence (P14902 whole entry): as above
Method: After incubation for 24 h, 140 µL of supernatant was mixed with 10 µL of 6.1 N trichloroacetic acid and the mixture was incubated for 30 min at 60 °C. The reaction mixture was then centrifuged for 20 min at 4000 rpm at 0 °C to remove sediments. About 100 µL of the supernatant was mixed with 100 µL of 2% (w/v) p-DMAB in acetic acid and measured at 480 nm. The final DMSO concentration was 0.5%. The data were analysed using Graphpad Prism 6.
The HeLa-based cellular assay is informative for drug development, as it evaluates not only the IDO1 inhibitory effect of the compounds but also their capacity to permeate the cell, their inhibition of tryptophan and kynurenine transport and their potential cytotoxicity. […] In addition, since the inhibition of tryptophan degradation could simply be an effect of cytotoxicity, thus the determination of cell viability was necessary when reporting cellular IC50 values. In the initial work, all of the screened compounds were determined for their cell viability using the classical MTT assy.

SKOV3 = tested on: SKOV3; parameters: method as in earlier work; settings: Figure 1, literature values; 27 (4), 28 (5); cited from earlier work
[2] = Water solubility evaluation (Avdeef–Bucher potentiometric titration); format: physicochemical; settings: thermodynamic from solid
Method: The aqueous solubility was determined on a Gemini Profiler instrument (pION) by the “goldstandard” Avdeef–Bucher potentiometric titration method[46]^,[47].

ferric IDO1 = molecular target: T2, ferric IDO1 (Homo sapiens, UniProt P14902); experiment: Measurement of IDO1 absorbance spectra (UV–visible); format: binding; settings: 20 µM compound, 5 µM IDO1, phosphate buffer pH 6.5; 406 nm in absence of compound
T2 construct: made in house
T2 sequence (P14902 whole entry): as above
Method: Absorbance spectra (250–480 nm) were measured immediately after addition of compound LBJ-10 (20 µM in 0.5% DMSO) to IDO1 (5 µM) in phosphate buffer (pH 6.5) using a Tecan Safire2 microplate reader.
A UV–visible spectra study was performed to evaluate the binding of the representative compound LBJ-10 (Figure 11). The absorption spectrum of the haeme group is highly sensitive to the changes in the polarity of haeme surrounding upon the ligand or substrate binding, leading to the change of spectra properties of the haeme. The UV–visible spectra of ferric IDO1 was measured in the presence and absence of compound LBJ-10.

IDO1 [3] = molecular target: T1, IDO1; experiment: Determination of the inhibition type (rate V against enzyme amount E); format: biochemical; settings: 1 µM inhibitor, 50 µM L-tryptophan
Method: The standard assay mixture (1 ml) contained 50 mM potassium phosphate buffer (pH = 6.5), 25 mM neutralised ascorbic acid, 10 µM methylene blue, 100 µg/mL catalase, 50 µM L-Trp, DMSO (0.5%), and eight different concentrations of IDO1. In addition, 1 µM LBJ-10 solution was added into the mixture. The reaction, at 37 °C, was started by the addition of the substrate and terminated after 60 min by adding 200 µL of 30% (w/v) trichloroacetic acid and further incubated at 50 °C for 30 min to hydrolyse N-formylkynurenine to produce kynurenine. After centrifugation at 12,000 rpm for 15 min at 20 °C, kynurenine in the supernatant (1 mL) was measured by a HPLC system with a reversed phase column (4.6 mm × 15 cm) of GL Sciences Inc. The mobile phase was 10 mM ammonium acetate containing 10% (w/v) methanol, and kynurenine was detected by absorbance at 360 nm. All determinations were carried out in duplicate. The data presented are average values. Based on the results of the activity assay, a function of rate ([V]) against enzyme amount ([E]) was proposed.
We also carried the additional experiment to determine the reversibility of compound LBJ-10. Detailed kinetics analysis was performed on LBJ-10 based on plotting a function of the rate (V) against the enzyme amount ([E]) (Figure 12(A))[58]^,[59]. […]

Compound	IC50 (HeLa)	IC50 (IDO1 [1])	EC50 (HeLa (IDO1))	Hill slope of the curves (cellular dose response) (HeLa (IDO1))	further results
Cn1cc(C[C@@H](N)C(=O)O)c2ccccc21 [Compound 1, 1-methyl-D-tryptophan]	1500 µM	–	–	–	–
Cc1cc(C(F)(F)F)nc(SCC(=O)Nc2sc3c(c2C#N)CCC3)c1C#N [LVS-048]	–	8760 ± 1740 nM	9.4 ± 0.07 µM	0.70	–
NS(=O)(=O)NCCNc1nonc1C(=NO)Nc1ccc(F)c(Br)c1 [Compound 3]	0.0071 µM	–	–	–	–
O=C1CC(c2c[nH]c3ccc(F)cc23)C(=O)N1 (centres unmarked) [Compound 4]	–	–	–	–	IC50 (SKOV3): 70 nM
CC(C)c1ccc(C#N)c(SCC(=O)Nc2ccc(F)cc2)n1 [LVS-019]	–	2640 ± 940 nM	7.68 ± 0.27 µM	1.11	–
C[C@@H](C(=O)Nc1ccc(Cl)cc1)C1CCC(c2ccnc3ccc(F)cc23)CC1 (some centres unmarked) [Compound 5]	–	–	–	–	IC50 (SKOV3): 3.4 nM
N#Cc1cccnc1SCC(=O)Nc1ccc(F)cc1 [LBJ-03, 2-((3-Cyanopyridin-2-yl)thio)-N-(4-fluorophenyl)acetamide]	–	9140 ± 380 nM	–	–	solubility [2]: 75 µg/mL (≈ 261 µM); melting point: 198 to 201 °C
4-amino-1,2,5-oxadiazole-3-carboximidamide [Compound 6]	1 µM	–	–	–	–
N#Cc1ccc(C(F)(F)F)nc1SCC(=O)Nc1ccc(F)c(Cl)c1 [LBJ-10, N-(3-chloro-4-fluorophenyl)-2-((3-cyano-6-(trifluoromethyl)pyridin-2-yl)thio) acetamide]	–	840 ± 330 nM	–	–	Soret peak of ferric IDO1 in the presence of compound (ferric IDO1): 416 nm; Inhibition type (reversibility) (IDO1 [3]): reversible inhibitor
Cc1cc(C)c(C#N)c(SCC(=O)Nc2ccc(Cl)c(Cl)c2)n1 [LVS-039]	–	2570 ± 420 nM	3.42 ± 0.56 µM	0.69	–
